Assay results reported in US20060216333A1, “Methods related to the treatment of mucosal associated conditions” (priority 2003, published 2006).
Marks after values point to notes of the source that are not given here.

Tests used:
Format in all cases: in vivo, rat
[1] = system: rats; test: Histologic examination of vaginas and vulvas, Example 10; conditions: necropsied 24 hours after treatment initiation
Procedure: (§1) Groups of 3 rats were treated as described in Example 5 and necropsied 22 hours after the devices were removed. Vaginas and vulvas were collected, fixed and processed routinely for histologic examination. Inflammation was scored as follows: 0=none, 1=minimal, 2=mild, 3=moderate, 4=severe. The values in the tables are the mean of the scores for 3 rats.
Cotton devices were prepared as described in Example 1. The devices were saturated with a solution containing 5% by weight of IRM 3 in 50/50 w/w isostearic acid/isopropyl myristate. One group of 5 rats was dosed intravaginally with the devices. The devices were removed after 2 hours. A second group of 5 rats was dosed intravaginally with 5% IRM 3 cream. The cream was washed out after 2 hours. A third group of 5 rats was dosed intravaginally with 5% IRM 3 cream but the cream was not removed. The rats were necropsied 24 hours after treatment initiation. Vaginas and vulvas were collected, fixed and processed routinely for histologic examination. The scoring system described in Example 9 was used.

[2] = system: rats; test: Histologic examination of vaginas and vulvas, Example 9; conditions: removed after 2 hours, necropsied 22 hours after removal; for Vagina Erosion or ulceration / Vulva Erosion or ulceration: incidence; for Vagina Inflammation / Vulva Inflammation: mean score, 0=none to 4=severe
Procedure: Devices were prepared from either cotton as described in Example 1 or from polyurethane foam (Medisorb 100—1.25:Polysorbate 60 at 1% concentration at 1.25/1 ratio, from Lendell Manufacturing, Inc, St. Charles, Mich.). The devices were saturated with one of the following solutions: 0.1% ERM 3 in 50/50 ISA/IPM; 1.0% IRM 3 in 50/50 ISA/IPM; 3.0% IRM 3 in 50/50 ISA/IPM or with 50/50 ISA/IPM (vehicle). Rats were dosed intravaginally; the devices were removed after 2 hours. […] Cytokines were assayed at 4 hours post dosing. The results are shown in the table below where each value is the mean of the values for 3 rats.
as §1

[3] = system: MCP-1; test: Serum and vaginal tissue MCP-1 after intravaginal dosing of rats (ELISA); conditions: for MCP-1 Tissue: vaginal tissue, per 200 mg
Procedure: (§2) In the examples below the serum and intravaginal cytokine data were obtained using the following general test method.
(§3) Rats were acclimated to collars (Lomir Biomedical, Malone, N.Y.) around the neck on two consecutive days prior to actual dosing. Rats were collared to prevent removal of the device and ingestion of the drug. Animals were then dosed intravaginally with a removable device or with […] of cream. Single dosed rats received one intravaginal dose with samples collected at various times following dosing. Blood was collected by cardiac puncture. Blood was allowed to clot briefly at room temperature and serum was separated from the clot via centrifugation. The serum was stored at −20° C. until it was analyzed for cytokine concentrations.
(§4) Following blood collection, the rats were euthanized and their vaginal tract, including the cervix, was then removed and the tissue was weighed, placed in a sealed 1.8 mL cryovial and flash frozen in liquid nitrogen. The frozen vaginal tissue sample was then suspended in 1.0 mL of RPMI medium (Celox, St. Paul, Minn.) containing 10% fetal bovine serum (Atlas, Fort Collins, Colo.), 2 mM L-glutamine, penicillin/streptomycin and 2-mercaptoethanol (RPMI complete) combined with a protease inhibitor cocktail set III (Calbiochem, San Diego, Calif.). The tissue was homogenized using a Tissue Tearor (Biospec Products, Bartlesville, Okla.) for approximately one minute. The tissue suspension was then centrifuged at 2000 rpm for 10 minutes under refrigeration to pellet the debris, and the supernatant collected and stored at −20° C. until analyzed for cytokine concentrations.
(§5) ELISA kits for rat TNF were purchased from BD PharMingen (San Diego, Calif.) and the rat MCP-1 ELISA kits were purchased from BioSource Intl. (Camarillo, Calif.).
(§6) Both kits were performed according to manufacturer's specifications. Results for both TNF and MCP-1 are expressed in pg/mL and are normalized per 200 mg of tissue. […] “Post dosing” means after treatment initiation. For example, if a device was inserted a time 0 hours and removed at 2 hours and cytokines were assayed at 4 hours, then the cytokines were assayed at 4 hours post dosing.

[4] = system: TNF; test: Serum and vaginal tissue TNF after intravaginal dosing of rats (ELISA); conditions: for TNF Tissue: vaginal tissue, per 200 mg
Procedure: as §2, §3, §4, §5, §6

[5] = incidence, cotton device 5% removed after 2 hours
[6] = 2 hr post dose, 5% in 50/50 ISA/IPM, cotton pellet device removed after 2 hours, Example 7
[7] = 4 hours post dosing, 0.1% in 50/50 ISA/IPM, cotton device removed after 2 hours, Example 5
[8] = 4 hours post dosing, 0.1% in 50/50 ISA/IPM, foam device removed after 2 hours, Example 5
[9] = 4 hours post dosing, 1.0% in 50/50 ISA/IPM, cotton device removed after 2 hours, Example 5
[10] = 4 hours post dosing, 1.0% in 50/50 ISA/IPM, foam device removed after 2 hours, Example 5
[11] = 4 hours post dosing, 3.0% in 50/50 ISA/IPM, cotton device removed after 2 hours, Example 5
[12] = 4 hours post dosing, 3.0% in 50/50 ISA/IPM, foam device removed after 2 hours, Example 5
[13] = 4 hr post dose, 5% in 50/50 ISA/IPM, cotton pellet device removed after 2 hours, Example 7
[14] = 6 hr post dose, 5% in 50/50 ISA/IPM, cotton pellet device removed after 2 hours, Example 7

Question: Which results are given for CC(C)Cn1cnc2c(N)nc3cccnc3c21 [IRM 3, 1-(2-methylpropyl)-1H-imidazo[4,5-c][1,5]naphthyridin-4-amine]?
Answer: Vagina - erosion [1, 5]: 0/5; Vagina - ulceration [1, 5]: 0/5; Vulva - preulcer [1, 5]: 3/5; Vulva - ulceration [1, 5]: 0/5; Vagina - Inflammation ([1]; mean score, 0=none to 4=severe, cotton device 5% in 50/50 ISA/IPM removed after 2 hours): 3.1; Vulva - Inflammation ([1]; mean score, 0=none to 4=severe, cotton device 5% removed after 2 hours): 1.7; Vagina Erosion or ulceration ([2]; cotton device 0.1%): 0/3; Vulva Erosion or ulceration ([2]; cotton device 0.1%): 0/3; Vagina Erosion or ulceration ([2]; cotton device 1.0%): 0/3; Vulva Erosion or ulceration ([2]; cotton device 1.0%, tissue from 1 rat not assessable): 0/2*; Vagina Erosion or ulceration ([2]; cotton device 3.0%): 0/3; Vulva Erosion or ulceration ([2]; cotton device 3.0%): 0/3; Vagina Erosion or ulceration ([2]; foam device 0.1%): 0/3; Vulva Erosion or ulceration ([2]; foam device 0.1%): 0/3; Vagina Erosion or ulceration ([2]; foam device 1.0%): 0/3; Vulva Erosion or ulceration ([2]; foam device 1.0%): 0/3; Vagina Erosion or ulceration ([2]; foam device 3.0%): 0/3; Vulva Erosion or ulceration ([2]; foam device 3.0%, tissue from 1 rat not assessable): 0/2*; Vagina Inflammation ([2]; cotton device 0.1% in 50/50 ISA/IPM): 1.0; Vulva Inflammation ([2]; cotton device 0.1%): 0.33; Vagina Inflammation ([2]; cotton device 1.0% in 50/50 ISA/IPM): 2.5; Vulva Inflammation ([2]; cotton device 1.0%): 0.5; Vagina Inflammation ([2]; cotton device 3.0% in 50/50 ISA/IPM): 3.17; Vulva Inflammation ([2]; cotton device 3.0%): 2.17; Vagina Inflammation ([2]; foam device 0.1% in 50/50 ISA/IPM): 2.17; Vulva Inflammation ([2]; foam device 0.1%): 0.33; Vagina Inflammation ([2]; foam device 1.0% in 50/50 ISA/IPM): 2.83; Vulva Inflammation ([2]; foam device 1.0%): 0.33; Vagina Inflammation ([2]; foam device 3.0% in 50/50 ISA/IPM): 2.5; Vulva Inflammation ([2]; foam device 3.0%): 1.75; MCP-1 Serum [3, 6]: 95 pg/mL; MCP-1 Serum [3, 7]: 72 pg/mL; MCP-1 Serum [3, 8]: 77 pg/mL; MCP-1 Serum [3, 9]: 111 pg/mL; MCP-1 Serum [3, 10]: 86 pg/mL; MCP-1 Serum [3, 11]: 79 pg/mL; MCP-1 Serum [3, 12]: 105 pg/mL; MCP-1 Serum [3, 13]: 114 pg/mL; MCP-1 Serum [3, 14]: 171 pg/mL; MCP-1 Tissue [3, 6]: 815 pg/mL; MCP-1 Tissue [3, 7]: 179 pg/mL; MCP-1 Tissue [3, 8]: 143 pg/mL; MCP-1 Tissue [3, 9]: 468 pg/mL; MCP-1 Tissue [3, 10]: 279 pg/mL; MCP-1 Tissue [3, 11]: 402 pg/mL; MCP-1 Tissue [3, 12]: 351 pg/mL; MCP-1 Tissue [3, 13]: 1260 pg/mL; MCP-1 Tissue [3, 14]: 840 pg/mL; TNF Serum [4, 6]: 4 pg/mL; TNF Serum [4, 7]: 0 pg/mL; TNF Serum [4, 8]: 0 pg/mL; TNF Serum [4, 9]: 0 pg/mL; TNF Serum [4, 10]: 0 pg/mL; TNF Serum [4, 11]: 0 pg/mL; TNF Serum [4, 12]: 0 pg/mL; TNF Serum [4, 13]: 3 pg/mL; TNF Serum [4, 14]: 5 pg/mL; TNF Tissue [4, 6]: 809 pg/mL; TNF Tissue [4, 7]: 108 pg/mL; TNF Tissue [4, 8]: 85 pg/mL; TNF Tissue [4, 9]: 173 pg/mL; TNF Tissue [4, 10]: 148 pg/mL; TNF Tissue [4, 11]: 175 pg/mL; TNF Tissue [4, 12]: 302 pg/mL; TNF Tissue [4, 13]: 608 pg/mL; TNF Tissue [4, 14]: 114 pg/mL
